From paper PMC11372076, “A dual inhibitor of PIP5K1C and PIKfyve prevents SARS-CoV-2 entry into cells” (Experimental & Molecular Medicine, 2024)

Legend:
[1] = system: Delta variant (B.1.617.2) spike-pseudotyped virus; type: cell-based, SARS-CoV-2
[2] = system: Omicron variant (BA.1) spike-pseudotyped virus; type: cell-based, SARS-CoV-2

With c1ccc(-c2cc(Nc3nc(-c4ccncc4)nc4ccccc34)n[nH]2)cc1 [UNI418, N -(5-phenyl-1 H -pyrazol-3-yl)-2-(4-pyridinyl)-4-quinazolinamine] the pseudotyped virus entry [1] was “markedly inhibited” and the pseudotyped virus entry [2] was “markedly inhibited”.
